Experimental data published in patent US9150529B2, “Piperazine derivatives, methods for preparing same, and uses thereof in the treatment of insulin resistance” (METABOLYS, priority 2011, dated 2015).

Tested on: db/db mouse
Assay: Antidiabetic activity in db/db mouse (drop in glycaemia after oral administration)
Assay type: in vivo
Settings: 8 weeks old, 200 mg/kg per os, blood from tail, glucometer; for Drop in glycaemia (in % of the initial value) After 1 hour: 1 hour after administration; for Drop in glycaemia (in % of the initial value) After 2 hours: 2 hours after administration
Procedure: The antidiabetic activity of the compounds of formula (I) orally on a type 2 diabetes animal model, the db/db mouse, was tested. Diabetic mice are used at the age of 8 weeks; they then have very high hyperglycaemia. The animals are stabilised at a minimum for one week after reception and up to the day of experimentation in an animal house at a temperature regulated at 21°-22° C. and subjected to a fixed cycle of light (from 7 a.m. to 7 p.m.) and darkness (from 7 p.m. to 7 a.m.). Their food consisted of a maintenance regime; water and food were supplied “ad libitum”. The mice are treated orally with the product to be tested (200 mg/kg per os) in suspension in a mixture of water and methyl cellulose or the vehicle (mixture of water and methyl cellulose) in the morning of the day of the experimentation. Just before the administration of the product and one and two hours after the administration of the product, a blood sample (one drop of blood) is taken following a small incision in the tail for determining glycaemia. This glycaemia is measured by means of a glucometer (Lifescan OneTouch Ultra, LifeScan, Johnson-Johnson Company) and OneTouchUltra glycaemia measurement strips.

Row | SMILES | Drop in glycaemia (in % of the initial value) After 1 hour [%] | Drop in glycaemia (in % of the initial value) After 2 hours [%]
1 | O=C(O)CCC(=O)c1ccc(OCCN2CCN(c3ccccc3F)CC2)cc1 [Compound 3] | 23 | 29
2 | O=C(O)CCC(=O)c1ccc(OCCN2CCN(c3ccc(F)cc3)CC2)cc1 [Compound 5] | 5 | 23
3 | CN(C)C(=N)N=C(N)N [Metformin, reference compound] | 22 | 27
4 | O=C(O)CCC(=O)c1ccc(OCCN2CCN(c3ccccn3)CC2)cc1 [Compound 10] | 23 | 39
5 | COc1ccc(N2CCN(CCOc3ccc(C(=O)CCC(=O)O)cc3)CC2)cc1 [Compound 2] | 7 | 12
6 | COc1cccc(N2CCN(CCOc3ccc(C(=O)CCC(=O)O)cc3)CC2)c1 [Compound 12] | 19 | 32
7 | O=C(O)CCC(=O)c1ccc(OCCN2CCN(c3cccc(F)c3)CC2)cc1 [Compound 4] | 9 | 20
